The text below walks through data of US9586947B2, “Imidazoline derivatives, preparation methods thereof, and their applications in medicine” (priority 2012, dated 2017).

Read-outs that look alike come from different tables or passages of the source.

The test system of data set [1] is PSA secretion of LNCaP cells. As to the kind of experiment: Inhibitory activity on PSA secretion of LNCaP cells. The format is cell-based. As to conditions: Homo sapiens, 96 h, read-out: IC50 (inhibition of PSA secretion of LNCaP cells). On the procedure:
The following in vitro assay was performed to determine the activity of the compounds of the present invention for inhibiting prostate specific antigen (PSA) secretion of LNCaP cells.
(11). Testosterone culture medium: RIPM 1640 culture medium, 10% CS-FBS, 1% Pen Strep, 1 nM testosterone
LNCaP cells were subcultured in cell culture medium, resuspended in active carbon culture medium, and then inoculated into a 96-well plate (100 μl/well) with an inoculation density of 5×10^4 cells/well.
The test compounds were dissolved in DMSO (dimethyl sulfoxide) and prepared as a 10 mM stock solution. When used, the stock solution was diluted with 5×DMSO and then diluted with a threefold gradient to obtain 8 gradient concentrations. Then, the 8 gradient concentrations were each diluted with 20× testosterone culture medium, in order to ensure DMSO concentration in each culture system was 0.5%. Diluted test compounds remained to be tested.
10 μl of diluted test compounds were added to a 96-well plate and mixed gently. 10 μl of 0.5% DMSO diluted with active carbon culture medium was added to the blank group, and 10 μl of 0.5% DMSO diluted with testosterone culture medium was added to the control group. The 96-well plate was cultured in an incubator under the conditions of 37° C. and 5% CO2.
After 4 days of incubation, 60 μl of cell cultural supernatants were collected, and the OD450 value per well was measured on a NOVO Star microplate reader using PSA kit (Abnova, KA0208).
(§1) IC50 values were calculated from the data of the inhibition rates of the test compounds at various concentrations.

The nature of data set [2]: Pharmacokinetics assay in rats, intragastric administration. The note with it: Sprague-Dawley, rat, po, male SD rats, 5 mg/kg; for Vd/F: read-out: Apparent Distribution Volume Vz/F; for AUC: read-out: Area Under Curve AUC; for CL/F: read-out: Clearance CLz/F; for half-life: read-out: Half-Life T½ (converted); for MRT: read-out: Mean Residence Time MRT; for Cmax: read-out: Plasma Conc. Cmax. The class given is in vivo. How it is done:
Male rats were used as test animals. The compounds of Example 6, Example 9, Example 11, Example 13, Example 15, Example 16, Example 17, Example 44, and Example 45 were administered intragastrically to rats to determine the drug concentration in plasma at different time points by LC/MS/MS method. The pharmacokinetic behavior of the compounds of the present invention was studied and evaluated in rats.
27 healthy adult male Sprague-Dawley (SD) rats, purchased from SINO-BRITISH SIPPR/BK LAB. ANIMAL LTD., CO, Certificate No.: SCXK (Shanghai) 2008-0016, were divided into 9 groups, with 3 rats in each group.
The appropriate amount of test compounds was weighed and mixed with 0.5% CMC-Na to prepare a 0.5 mg/mL suspension by an ultrasonic method.
After an overnight fast, 27 SD rats were divided into 9 groups, and administered the compounds intragastrically at a dose of 5.0 mg/kg and an administration volume of 10 mL/kg.
Compounds of Example 6, Example 9, Example 11, Example 13, Example 15, Example 16, Example 17, Example 44, and Example 45 were administered intragastrically to rats. Blood samples (0.1 mL) were taken from the orbital sinus before administration, and at 0.5 h, 1.0 h, 2.0 h, 3.0 h, 4.0 h, 6.0 h, 8.0 h, 11.0 h, and 24.0 h after administration, stored in heparinized tubes, and centrifuged for 5 minutes at 3,500 rpm to separate blood plasma. The plasma samples were stored at −20° C. The rats were fed 2 hours after administration.
The concentration of the different test compounds in rat plasma after intragastrically administering the test compounds was determined by LC-MS/MS method. The linearity of the method is 1.00-2000 ng/ml. Plasma samples were analyzed after protein precipitation was accomplished by the addition of methanol.

Data set [3] deals with PSA secretion of LNCaP-AR cells (AR-overexpressed LNCaP cells). Description: Agonist activity on PSA secretion of LNCaP-AR cells. The format is cell-based. The note with it: 96 h, 4 days, OD value (test compounds)/OD value (blank control), blank control 100. How it is done: The following in vitro assay was performed to determine the activity of a high concentration of the compounds of the present invention for agitating the PSA secretion of LNCaP-AR cells (AR-overexpressed LNCaP cells, referred to as “LNCaP-AR cells” for short, constructed by a retroviral transfection method).
LNCaP-AR cells were subcultured in cell culture medium, resuspended in active carbon culture medium, and then inoculated into a 96-well plate (100 μl/well) with an inoculation density of 5×10^4 cells/well.
The test compounds were dissolved in DMSO (dimethyl sulfoxide) and prepared as a 10 mM stock solution. When used, the stock solution was diluted with DMSO into the two concentrations of 2 mM and 0.6 mM. Then, the diluted concentrations were each diluted with 20× active carbon culture medium, in order to ensure DMSO concentration in each culture system was 0.5%. Diluted test compounds remained to be tested.
10 μl of diluted test compounds were added to a 96-well plate and mixed gently. 10 μl of 0.5% DMSO diluted with active carbon culture medium was added to the blank control group.
After 4 days of incubation, 60 μl of cell cultural supernatants were collected, and the OD value of PSA per well was measured on a NOVO Star microplate reader using PSA kit (abnova, KA0208).
Agonist activity of the test compounds of the present invention on PSA secretion of LNCaP-AR cells was evaluated by the percentage of OD value (test compounds)/OD value (blank control). When the percentage value is greater than 100, the test compounds have agonist activity on PSA secretion of LNCaP-AR cells compared to the blank control. Conversely, when the percentage value is less than 100, the test compounds have no agonist activity on PSA secretion of LNCaP-AR cells compared to the blank control.

Another data set deals with LNCaP cells. Description: Proliferation inhibition of LNCaP cells (CCK-8). The format is cell-based. As to conditions: Homo sapiens, 144 h, cultured 3 + 3 days, CCK-8, OD at 450 nm. On the procedure:
The following in vitro assay was performed to determine the activity of the compounds of the present invention for inhibiting the proliferation of LNCaP cells.
(1). Cell counting reagent CCK-8 (DOJINDO, CK04)
See experimental procedure from Test Example 1.
After LNCaP cells were cultured for 3 days, the culture medium, test compounds, blank group, and control group were renewed with half of the liquid volume, and were cultured for another 3 days. Then, all 96-well plates were mixed gently with 10 μl of CCK-8 and cultured in an incubator for 2-3 hours under the conditions of 37° C. and 5% CO2. The OD value per well was measured at 450 nm on a Victor3 microplate reader.
as §1

[4] abbreviates: LNCaP cells, 1 nM testosterone medium, 4 days of incubation, PSA kit OD450.

For orientation: IC50 means the concentration needed to halve the response being measured. A word on the AUC: it is the area under the concentration-time curve, a measure of exposure. The half-life is the time in which the quantity being followed falls by half. A word on the MRT: it is the average time that molecules of a dose stay in the body. For orientation: Cmax means the maximum level reached in the sampled fluid or tissue. As to `CC1(C)C(=O)N(c2ccc(C#N)c(C(F)(F)F)c2)C(=S)N1c1ccc(OCC2(N)CC2)c(F)c1` [Example 6, 4-(3-(4-((1-Aminocyclopropyl)methoxy)-3-fluorophenyl)-4,4-dimethyl-5-oxo-2-thioxoimidazolidin-1-yl)-2-(trifluoromethyl)benzonitrile], in data set [1] (LNCaP), the IC50 was 24 nM. In data set [2] (in vivo), the Vd/F is 6.02 ± 1.69 L/kg, the AUC worked out at 16800 ± 7480 ng·h/mL, the CL/F is 5.75 ± 2.44 mL/min/kg and the half-life was 13.1 ± 4.6 h. Besides, in data set [2] (in vivo), the MRT was determined as 17.8 ± 6.2 h and the Cmax was 1200 ± 330 ng/mL. In data set [3], this compound came in with an activity at 3 µM of 93.2% and an activity at 10 µM of 100%.
Turning to `CC1(C)C(=O)N(c2ccc(C#N)c(C(F)(F)F)c2)C(=S)N1c1ccc(O[C@@H]2COC[C@H]2O)c(F)c1` [Example 8, 4-(3-(3-fluoro-4-(((3R,4R)-4-hydroxytetrahydrofuran-3-yl)oxy)phenyl)-4,4-dimethyl-5-oxo-2-thioxoimidazolidin-1-yl)-2-(trifluoromethyl)benzonitrile], the IC50 in data set [1] (LNCaP) amounted to 21 nM. In data set [3], this compound returned an activity at 3 µM of 65% and an activity at 10 µM of 99.5%.
As for `CC1(C)C(=O)N(c2ccc(C#N)c(C(F)(F)F)c2)C(=S)N1c1ccc(O[C@H]2COC[C@@H]2O)c(F)c1` [Example 9, 4-(3-(3-fluoro-4-(((3S,4S)-4-hydroxytetrahydrofuran-3-yl)oxy)phenyl)-4,4-dimethyl-5-oxo-2-thioxoimidazolidin-1-yl)-2-(trifluoromethyl)benzonitrile], in data set [1] (LNCaP), the IC50 is 26 nM. Moreover, in data set [2] (in vivo), the Vd/F was determined as 4.59 ± 0.556 L/kg, the AUC was 18800 ± 3300 ng·h/mL, the CL/F was determined as 4.52 ± 0.77 mL/min/kg and the half-life is 11.8 ± 1.1 h. Besides, in data set [2] (in vivo), the MRT amounted to 18.3 ± 1.9 h and the Cmax came to 772 ± 83 ng/mL. In data set [3], this compound registered an activity at 3 µM of 90.8% and an activity at 10 µM of 85%.
On to `CC1(C)C(=O)N(c2ccc(C#N)c(C(F)(F)F)c2)C(=S)N1c1ccc(OCCO)nc1` [Example 10, 4-(3-(6-(2-Hydroxyethoxy)pyridin-3-yl)-4,4-dimethyl-5-oxo-2-thioxoimidazolidin-1-yl)-2-(trifluoromethyl)benzonitrile], for which the results for the IC50 (in data set [1] (setting [4]); in the data set on LNCaP cells) were 23 nM and 131 nM, respectively. Besides, the activity at 3 µM in data set [3] came to 74.7%. Moreover, the activity at 10 µM in data set [3] came to 68.1%.
In the same order, the values of `CC1(C)C(=O)N(c2ccc(C#N)c(C(F)(F)F)c2)C(=S)N1c1ccc(OCCO)c(F)c1` [Example 12, 4-(3-(3-Fluoro-4-(2-hydroxyethoxy)phenyl)-4,4-dimethyl-5-oxo-2-thioxoimidazolidin-1-yl)-2-(trifluoromethyl)benzonitrile] are 33 nM, 146 nM, 69.6% and 90.7%.
With `CC1(C)C(=O)N(c2ccc(C#N)c(C(F)(F)F)c2)C(=S)N1c1ccc(OCC(O)CO)c(F)c1` (stereo not shown) [Example 13, 4-(3-(4-(2,3-Dihydroxypropoxy)-3-fluorophenyl)-4,4-dimethyl-5-oxo-2-thioxoimidazolidin-1-yl)-2-(trifluoromethyl)benzonitrile], in data set [1] (LNCaP), the IC50 was determined as 88 nM. Besides, in data set [2] (in vivo), the Vd/F was 2.31 ± 0.553 L/kg, the AUC is 26500 ± 7380 ng·h/mL, the CL/F worked out at 3.35 ± 1.1 mL/min/kg and the half-life was 8.1 ± 0.65 h. Besides, in data set [2] (in vivo), the MRT turned out to be 13.1 ± 1.5 h and the Cmax turned out to be 1550 ± 197 ng/mL. In addition, in data set [3], the activity at 3 µM amounted to 53.6% and the activity at 10 µM was determined as 71.5%.
Take `CC1(C)C(=O)N(c2ccc(C#N)c(C(F)(F)F)c2)C(=S)N1c1ccc(O[C@@H]2COC[C@H]2O)cc1` [Example 15, 4-(3-(4-(((3R,4R)-4-hydroxytetrahydrofuran-3-yl)oxy)phenyl)-4,4-dimethyl-5-oxo-2-thioxoimidazolidin-1-yl)-2-(trifluoromethyl)benzonitrile]: the IC50 in data set [1] (LNCaP) is 52 nM. Besides, in data set [2] (in vivo), the Vd/F is 3.97 ± 0.341 L/kg, the AUC was found to be 21400 ± 4100 ng·h/mL, the CL/F is 3.99 ± 0.75 mL/min/kg and the half-life was 11.7 ± 1.7 h. Further, in data set [2] (in vivo), the MRT was found to be 18.2 ± 2.3 h and the Cmax was 999 ± 172 ng/mL. In addition, in data set [3], the activity at 3 µM came out at 77.5% and the activity at 10 µM is 84.8%.
Turning to `CC1(C)C(=O)N(c2ccc(C#N)c(C(F)(F)F)c2)C(=S)N1c1ccc(OC[C@H](O)CO)cc1` [Example 45, (R)-4-(3-(4-(2,3-Dihydroxypropoxy)phenyl)-4,4-dimethyl-5-oxo-2-thioxoimidazolidin-1-yl)-2-(trifluoromethyl)benzonitrile], in data set [1] (setting [4]), the IC50 amounted to 35 nM. Further, in data set [2] (plasma), the Vd/F worked out at 3.27 ± 0.261 L/kg, the AUC was 13000 ± 365 ng·h/mL, the CL/F is 6.4 ± 0.18 mL/min/kg and the half-life is 5.9 ± 0.3 h. In addition, in data set [2] (plasma), the MRT worked out at 10 ± 0.6 h and the Cmax was found to be 980 ± 173 ng/mL. In addition, the IC50 in the data set with LNCaP cells worked out at 74 nM.
